Legend:
Adenosine receptor A2a = Adenosine receptor A2a (Homo sapiens, UniProt P29274)
Adenosine receptor A3 = target: T1, Adenosine receptor A3 (Homo sapiens, UniProt P0DMS8)
T1 sequence (P0DMS8 whole entry): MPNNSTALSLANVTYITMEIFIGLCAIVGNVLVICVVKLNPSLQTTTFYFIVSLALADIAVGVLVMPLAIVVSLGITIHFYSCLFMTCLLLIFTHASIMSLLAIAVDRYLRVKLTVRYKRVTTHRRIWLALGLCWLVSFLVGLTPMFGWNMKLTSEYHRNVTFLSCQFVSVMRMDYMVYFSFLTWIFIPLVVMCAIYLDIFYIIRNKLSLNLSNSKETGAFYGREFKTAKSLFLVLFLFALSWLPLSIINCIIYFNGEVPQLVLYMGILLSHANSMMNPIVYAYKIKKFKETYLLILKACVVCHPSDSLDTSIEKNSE

Vasopressin V2 receptor = Vasopressin V2 receptor (Homo sapiens, UniProt P30518)
[1] = target: T2, Cholecystokinin receptor type A (Homo sapiens, UniProt P32238)
T2 sequence (P32238 whole entry): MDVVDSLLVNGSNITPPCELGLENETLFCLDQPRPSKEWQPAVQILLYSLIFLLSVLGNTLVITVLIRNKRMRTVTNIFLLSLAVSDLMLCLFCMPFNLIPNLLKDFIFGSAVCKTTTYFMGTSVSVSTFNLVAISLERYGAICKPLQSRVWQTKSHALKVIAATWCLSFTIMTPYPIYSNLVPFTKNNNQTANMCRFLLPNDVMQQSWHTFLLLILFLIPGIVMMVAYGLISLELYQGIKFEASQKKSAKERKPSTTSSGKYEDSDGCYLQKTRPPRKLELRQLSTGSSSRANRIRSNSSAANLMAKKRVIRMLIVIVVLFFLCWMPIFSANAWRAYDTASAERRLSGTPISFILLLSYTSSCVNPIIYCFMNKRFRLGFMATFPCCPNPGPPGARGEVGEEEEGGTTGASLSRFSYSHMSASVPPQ

[2] = target: Muscarinic acetylcholine receptor M3 (Homo sapiens, UniProt P20309)
Sequence of Muscarinic acetylcholine receptor M3 (P20309 whole entry): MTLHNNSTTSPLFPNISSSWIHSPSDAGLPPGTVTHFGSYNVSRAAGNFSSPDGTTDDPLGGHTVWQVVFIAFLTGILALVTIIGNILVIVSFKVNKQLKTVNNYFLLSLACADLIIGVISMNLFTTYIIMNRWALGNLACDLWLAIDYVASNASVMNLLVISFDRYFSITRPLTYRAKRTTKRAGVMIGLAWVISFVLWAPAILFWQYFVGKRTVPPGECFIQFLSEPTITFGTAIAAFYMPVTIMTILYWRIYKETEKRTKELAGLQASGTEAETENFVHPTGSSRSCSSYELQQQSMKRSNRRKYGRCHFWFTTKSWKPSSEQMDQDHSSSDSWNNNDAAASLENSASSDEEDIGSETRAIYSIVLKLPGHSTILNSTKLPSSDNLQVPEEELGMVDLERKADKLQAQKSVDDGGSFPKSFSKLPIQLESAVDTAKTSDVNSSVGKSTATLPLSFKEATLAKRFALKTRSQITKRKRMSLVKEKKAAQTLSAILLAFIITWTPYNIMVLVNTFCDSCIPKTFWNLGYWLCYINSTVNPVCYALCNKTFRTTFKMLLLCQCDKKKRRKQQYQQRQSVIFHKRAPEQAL

D(1A) dopamine receptor = D(1A) dopamine receptor (Homo sapiens, UniProt P21728); assay type: functional, cell-based
Sequence of D(1A) dopamine receptor (P21728 whole entry): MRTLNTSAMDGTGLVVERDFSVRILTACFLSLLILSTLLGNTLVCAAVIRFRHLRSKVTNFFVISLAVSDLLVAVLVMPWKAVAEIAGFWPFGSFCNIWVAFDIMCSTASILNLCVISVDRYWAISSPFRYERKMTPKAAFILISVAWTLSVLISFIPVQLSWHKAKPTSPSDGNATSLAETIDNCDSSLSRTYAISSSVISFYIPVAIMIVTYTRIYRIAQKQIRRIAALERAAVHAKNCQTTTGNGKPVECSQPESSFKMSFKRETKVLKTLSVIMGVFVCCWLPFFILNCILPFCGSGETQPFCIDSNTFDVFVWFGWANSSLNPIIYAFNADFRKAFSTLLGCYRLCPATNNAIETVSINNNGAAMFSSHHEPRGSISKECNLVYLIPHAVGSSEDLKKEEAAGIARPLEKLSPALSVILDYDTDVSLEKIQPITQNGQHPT

[3] = target: 5-hydroxytryptamine receptor 2A (Homo sapiens, UniProt P28223); assay type: functional, cell-based
Sequence of 5-hydroxytryptamine receptor 2A (P28223 whole entry): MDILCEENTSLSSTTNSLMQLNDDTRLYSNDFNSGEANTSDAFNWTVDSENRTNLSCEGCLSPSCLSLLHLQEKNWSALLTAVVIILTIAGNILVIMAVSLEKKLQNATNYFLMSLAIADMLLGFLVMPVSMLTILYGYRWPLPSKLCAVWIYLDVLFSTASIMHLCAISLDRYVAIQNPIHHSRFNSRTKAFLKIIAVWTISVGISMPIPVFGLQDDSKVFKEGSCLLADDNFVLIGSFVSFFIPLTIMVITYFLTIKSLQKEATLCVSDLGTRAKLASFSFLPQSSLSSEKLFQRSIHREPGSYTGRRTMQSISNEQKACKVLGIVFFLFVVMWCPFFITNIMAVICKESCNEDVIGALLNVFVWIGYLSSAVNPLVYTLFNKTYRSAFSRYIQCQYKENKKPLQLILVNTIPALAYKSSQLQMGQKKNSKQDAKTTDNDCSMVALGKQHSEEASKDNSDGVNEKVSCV

Progesterone receptor = target: T3, Progesterone receptor (Homo sapiens, UniProt P06401); assay type: functional
T3 sequence (P06401 whole entry): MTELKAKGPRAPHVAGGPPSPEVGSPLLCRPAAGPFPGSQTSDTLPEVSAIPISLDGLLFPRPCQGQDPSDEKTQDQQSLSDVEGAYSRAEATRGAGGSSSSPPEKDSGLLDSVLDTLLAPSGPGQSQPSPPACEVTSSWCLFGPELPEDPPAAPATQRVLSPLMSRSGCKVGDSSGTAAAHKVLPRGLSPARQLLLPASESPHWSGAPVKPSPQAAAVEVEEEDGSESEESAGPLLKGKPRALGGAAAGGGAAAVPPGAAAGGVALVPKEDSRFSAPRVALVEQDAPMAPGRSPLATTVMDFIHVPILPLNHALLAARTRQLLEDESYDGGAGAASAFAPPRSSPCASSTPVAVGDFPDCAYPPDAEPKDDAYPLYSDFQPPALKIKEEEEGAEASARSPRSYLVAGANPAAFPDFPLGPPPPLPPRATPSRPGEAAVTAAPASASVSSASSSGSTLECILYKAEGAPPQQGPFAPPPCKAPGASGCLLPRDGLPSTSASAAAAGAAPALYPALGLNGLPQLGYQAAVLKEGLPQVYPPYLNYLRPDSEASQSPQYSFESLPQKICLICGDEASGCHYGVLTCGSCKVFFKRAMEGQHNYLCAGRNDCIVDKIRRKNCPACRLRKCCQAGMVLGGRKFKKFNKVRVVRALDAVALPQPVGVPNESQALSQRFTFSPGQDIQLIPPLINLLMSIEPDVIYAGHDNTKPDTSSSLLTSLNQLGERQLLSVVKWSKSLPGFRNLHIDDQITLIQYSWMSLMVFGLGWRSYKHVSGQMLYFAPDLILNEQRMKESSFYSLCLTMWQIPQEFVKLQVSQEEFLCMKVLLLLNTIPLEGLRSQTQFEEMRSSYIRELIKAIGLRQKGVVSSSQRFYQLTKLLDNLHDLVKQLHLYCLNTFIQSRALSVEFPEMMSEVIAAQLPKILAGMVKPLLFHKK

[4] = target: T4, Prostaglandin G/H synthase 1 (Rattus norvegicus, UniProt Q63921); assay type: functional
T4 sequence (Q63921 whole entry): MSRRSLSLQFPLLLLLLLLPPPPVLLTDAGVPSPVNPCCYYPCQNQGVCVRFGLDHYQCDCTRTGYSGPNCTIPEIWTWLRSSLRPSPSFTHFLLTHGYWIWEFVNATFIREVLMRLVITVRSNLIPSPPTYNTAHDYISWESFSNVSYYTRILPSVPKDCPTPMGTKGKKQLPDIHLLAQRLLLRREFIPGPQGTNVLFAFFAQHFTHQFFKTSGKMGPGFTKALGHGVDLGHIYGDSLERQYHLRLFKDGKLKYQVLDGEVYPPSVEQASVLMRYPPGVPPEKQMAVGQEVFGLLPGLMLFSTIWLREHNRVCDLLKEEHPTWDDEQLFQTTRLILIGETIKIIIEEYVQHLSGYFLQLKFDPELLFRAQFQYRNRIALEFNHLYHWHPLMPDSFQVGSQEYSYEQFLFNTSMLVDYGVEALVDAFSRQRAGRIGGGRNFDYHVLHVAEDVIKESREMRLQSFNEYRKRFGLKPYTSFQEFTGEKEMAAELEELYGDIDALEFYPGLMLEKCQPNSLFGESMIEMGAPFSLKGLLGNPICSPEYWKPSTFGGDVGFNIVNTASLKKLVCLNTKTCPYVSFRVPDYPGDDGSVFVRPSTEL

Histamine H3 receptor = Histamine H3 receptor (Homo sapiens, UniProt Q9Y5N1)
Sequence of Histamine H3 receptor (Q9Y5N1 whole entry): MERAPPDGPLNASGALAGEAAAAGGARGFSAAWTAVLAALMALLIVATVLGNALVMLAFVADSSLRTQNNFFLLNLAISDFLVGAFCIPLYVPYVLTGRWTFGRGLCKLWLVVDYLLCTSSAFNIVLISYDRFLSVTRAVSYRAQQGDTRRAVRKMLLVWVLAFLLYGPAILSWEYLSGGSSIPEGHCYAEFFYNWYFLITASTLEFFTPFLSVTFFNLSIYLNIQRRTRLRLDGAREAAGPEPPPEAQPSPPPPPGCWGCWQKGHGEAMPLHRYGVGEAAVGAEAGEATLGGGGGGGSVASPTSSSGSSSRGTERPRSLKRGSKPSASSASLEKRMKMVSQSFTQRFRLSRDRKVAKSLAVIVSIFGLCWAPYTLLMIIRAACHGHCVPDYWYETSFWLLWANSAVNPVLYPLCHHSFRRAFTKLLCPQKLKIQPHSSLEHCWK
Also: assay procedure not described here.

Sequence of Adenosine receptor A2a (P29274 whole entry): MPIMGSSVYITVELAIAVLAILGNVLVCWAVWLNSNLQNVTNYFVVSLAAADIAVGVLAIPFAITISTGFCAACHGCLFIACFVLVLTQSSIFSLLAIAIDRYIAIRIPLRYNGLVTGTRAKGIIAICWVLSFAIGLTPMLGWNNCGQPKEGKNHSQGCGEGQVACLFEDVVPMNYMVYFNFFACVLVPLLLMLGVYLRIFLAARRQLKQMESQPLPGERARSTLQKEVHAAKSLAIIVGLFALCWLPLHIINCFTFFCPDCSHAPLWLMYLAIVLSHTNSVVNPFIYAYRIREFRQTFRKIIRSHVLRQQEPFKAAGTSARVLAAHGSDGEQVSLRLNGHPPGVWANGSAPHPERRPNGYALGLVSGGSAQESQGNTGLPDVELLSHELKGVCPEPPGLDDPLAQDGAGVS

Molecule	AC50 (Adenosine receptor A2a)	AC50 (Adenosine receptor A3)	AC50 (Vasopressin V2 receptor)	AC50 [1]	AC50 [2]	AC50 (D(1A) dopamine receptor)	AC50 [3]	AC50 (Progesterone receptor)	AC50 [4]	AC50 (Histamine H3 receptor)
CN1CCCN=C1/C=C/c1cccc(O)c1 [OXANTEL]	> 30 µM	22 µM	> 30 µM	> 30 µM	> 30 µM	> 30 µM	> 30 µM	10 µM	> 30 µM	> 30 µM
CC(=O)OCC(=O)[C@@]1(O)CC[C@H]2[C@@H]3CCC4=CC(=O)CC[C@]4(C)[C@@]3(F)[C@@H](O)C[C@@]21C [FLUDROCORTISONE ACETATE]	> 30 µM	> 30 µM	> 30 µM	> 30 µM	–	> 30 µM	–	–	> 30 µM	> 30 µM
CCCCCCOC(=O)NC(=N)c1ccc(NCc2nc3cc(C(=O)N(CCC(=O)OCC)c4ccccn4)ccc3n2C)cc1 [DABIGATRAN ETEXILATE]	> 30 µM	11 µM	> 30 µM	> 30 µM	> 30 µM	> 30 µM	> 30 µM	> 30 µM	> 30 µM	> 30 µM
O=C(O)c1nn(Cc2ccc(Cl)cc2Cl)c2ccccc12 [LONIDAMINE]	> 30 µM	> 30 µM	> 30 µM	> 30 µM	> 30 µM	> 30 µM	> 30 µM	> 30 µM	> 30 µM	> 30 µM
CS(=O)(=O)NC(=O)CCC/C=C\C[C@H]1C(=O)C[C@@H](O)[C@@H]1/C=C/[C@@H](O)COc1ccccc1 [SULPROSTONE]	> 30 µM	> 30 µM	> 30 µM	> 30 µM	> 30 µM	> 30 µM	> 30 µM	> 30 µM	> 30 µM	> 30 µM
O=C(O)c1ccc2nc(-c3cc(Cl)cc(Cl)c3)oc2c1	> 30 µM	> 30 µM	> 30 µM	> 30 µM	> 30 µM	12 µM	> 30 µM	> 30 µM	> 30 µM	> 30 µM
CCN(CC)Cc1nccn1-c1ccc([N+](=O)[O-])cc1C(=O)c1ccccc1Cl [NIZOFENONE]	> 30 µM	> 30 µM	> 30 µM	> 30 µM	> 30 µM	> 30 µM	> 30 µM	> 30 µM	> 30 µM	> 30 µM
CNCCc1ccccn1 [BETAHISTINE]	> 30 µM	> 30 µM	> 30 µM	> 30 µM	–	> 30 µM	–	> 30 µM	> 30 µM	11 µM
CC(=O)OCC1=C(C(=O)O)N2C(=O)[C@@H](NC(=O)Cc3cccs3)[C@H]2SC1 [CEPHALOTHIN]	> 30 µM	> 30 µM	> 30 µM	> 30 µM	> 30 µM	> 30 µM	> 30 µM	> 30 µM	> 30 µM	> 30 µM
CCCCCCCC(=O)CC[C@@H]1[C@@H](C/C=C\CCCC(=O)O)[C@@H](O)C[C@H]1O [UNOPROSTONE]	> 30 µM	> 30 µM	> 30 µM	> 30 µM	> 30 µM	> 30 µM	> 30 µM	> 30 µM	> 30 µM	> 30 µM
COc1nc(C)nc(Cl)c1N=C1NCCN1 [MOXONIDINE]	> 30 µM	> 30 µM	> 30 µM	> 30 µM	–	> 30 µM	–	> 30 µM	> 30 µM	> 30 µM
CC(=O)Oc1cccc2c1C(=O)c1c(OC(C)=O)cc(C(=O)O)cc1C2=O [DIACEREIN]	24 µM	17 µM	> 30 µM	> 30 µM	> 30 µM	> 30 µM	> 30 µM	–	0.9 µM	> 30 µM
CN(C)CCOCC(=O)NC12CC3CC(CC(C3)C1)C2 [TROMANTADINE]	> 30 µM	> 30 µM	> 30 µM	> 30 µM	> 30 µM	> 30 µM	> 30 µM	> 30 µM	> 30 µM	> 30 µM
CO/N=C(\C(=O)N[C@@H]1C(=O)N2C(C(=O)[O-])=C(C[n+]3ccc(N)n3CCO)CS[C@H]12)c1csc(N)n1 [CEFOSELIS]	> 30 µM	> 30 µM	> 30 µM	> 30 µM	> 30 µM	> 30 µM	> 30 µM	> 30 µM	> 30 µM	> 30 µM
COc1cc(N)cn[n+]1-c1ccccc1 [AMEZINIUM METILSULFATE]	> 30 µM	> 30 µM	> 30 µM	> 30 µM	> 30 µM	> 30 µM	> 30 µM	> 30 µM	> 30 µM	> 30 µM
CCc1ccc(C(=O)C(C)CN2CCCCC2)cc1 (stereo not given) [EPERISONE]	> 30 µM	> 30 µM	> 30 µM	> 30 µM	–	> 30 µM	–	> 30 µM	> 30 µM	1.3 µM
SITOSTEROLS	> 30 µM	> 30 µM	> 30 µM	> 30 µM	> 30 µM	> 30 µM	> 30 µM	–	–	> 30 µM
CCCCOC(=O)c1ccc(N)cc1 [BUTAMBEN]	> 30 µM	> 30 µM	> 30 µM	> 30 µM	–	> 30 µM	–	> 30 µM	0.6 µM	> 30 µM
NS(=O)(=O)c1ccc(N2CCCCS2(=O)=O)cc1	> 30 µM	> 30 µM	> 30 µM	> 30 µM	> 30 µM	> 30 µM	> 30 µM	–	> 30 µM	> 30 µM
